1 compound from patent US5236955A, “Anti-fungal agent” (Washington University, priority 1992, dated 1993) can be followed below.

What all share (type): cell-based
One experiment relates to C. albicans lipids. The experiment can be described thus: Incorporation of label into total cellular lipids. Particulars: 1 hr, 30° C. How it is done: (§1) Cells were incubated with the indicated [^3 H]fatty acid (specific activity=30 Ci/mmol, 100 μCi/ml media) for 1 h at 30° C. After the organisms were pelleted and washed, spheroplasts were prepared and total lipids extracted. Tests were done on two separate occasions. The incorporation of label from each of the oxatetradecanoic acid analogs and from palmitate into total cellular lipids is expressed as a percentage of the total amount of label incorporated from [^3 H]myristate.
(§2) Analysis of the incorporation of exogenous fatty acids into cellular phospholipids and neutral lipids--Five ml cultures were labeled with each of the 5 tritiated fatty acids or with [9,10(n)^3 H]palmitate (30 Ci/mmol) at 30° C. for 60 min (S. cerevisiae and C. albicans) or for 75 min (C. neoformans) as described in the preceding paragraph. S. cerevisiae and C. albicans cells were then pelleted by centrifugation at 4000×g for 5 min. and washed first in water followed by a wash with 1M sorbitol. […]
(§3) Dried lipids were resuspended in 500 μl CHCl3 :MeOH(1:1). A 2 μl aliquot was counted in a scintillation counter to determine the extent of incorporation of label into cellular lipids. […]

In the next experiment the test system is C. neoformans lipids. The experiment is described as follows: Incorporation of label into total cellular lipids. Particulars: 1 hr, 30° C. How it is done: as §1, §2, §3
A further experiment has as its system S. cerevisiae. The experiment is described as follows: Viability of S. cerevisiae. Particulars: Saccharomyces cerevisiae. How it is done: Oxatetradecanoic acids were added (final concentraton=25-500 μM) as a single dose to log phase cultures of C. alibcans grown in SAB at 30° C. (Panels A and B) and to log phase cultures of S. cerevisiae grown in YPD at 30° C. (Panels C and D). The results were compared to the number of viable organisms present in cultures treated with 0.1% EtOH alone. […] A single does of alphotericin B (final concentration=55 μM) was added to parallel cultures which served as positive controls. Assays were done in duplicate. Representative tests are shown.
Saccharomyces cerevisiae strain YM2061 (MATa ura3-52 his3Δ200 ade2-101 lys2-801 met LEU2::pRY181 can1; Flick and Johnston, Mol. Cell. Biol. 10, 4757-4769 (1990), Candida albicans strain B311 (obtained from the American Type Tissue Culture, Rockville, Md.), or Cryptococcus neoformans strain L210425 (a clinical isolate that is part of the permanent culture collection of the Mycology Laboratory, Barnes Hospital, St. Louis, Mo.) were grown overnight at 30 C. The S. cerevisiae strain was incubated in YPD medium (1% bacto-yeast extract, Gibco, Long Island, N.Y.), 2% bacto-peptone (Gibco), 2% dextrose). The C. albicans and C. neoformans strains were grown in Sabouraud's media (SAB; 2% (w/v) dextrose, 1% bacto-peptone). The following morning the cultures were diluted into fresh medium to the desired density at 600 nm (early log phase), and subsequently incubated in a rotary shaker at 30° C. until an A600 =0.5 (mid log phase) was achieved. The culture was then divided into 10 ml aliquots. A single 10 μl aliquot of a stock solution of fatty acid analog (prepared in various concentrations using absolute ethanol) was added to the culture so that the final concentration of the compound was 100-500 μM (T=0). Ten microliters of ethanol alone was added to one 10 ml culture which served as the negative control. Amphotericin B (AmB; in the form of Fungizone, Squibb) was added (final concentration=55 μM) to another culture which served as the positive control. At T=0 and 0.5-24 h after addition of fatty acid analog to the subcultures, an aliquot was removed for determining the density of the subculture at 600 nm. Cell viability was determined at each of these time points by (i) serially diluting the aliquot in 0.15M NaCl and counting cell number in a hemocytometer and (ii) plating 2-3 of the dilutions in triplicate onto plates of SAB/agar (C. albicans and C. neoformans) or YPD/agar (S. cerevisiae). These plates were subsequently incubated at 30° C. for 24-48 hr to allow for the growth of colonies. The data were expressed as the ratio of viable cells/ml in the fatty acid analog treated subculture to the number of viable cells/ml in the negative (ethanol) control culture.

With `CCCCCCCCCCOCCC(=O)O` [O4, 4-oxatetradecanoic acid], in the experiment with C. albicans lipids, the “label incorporated into C. albicans lipids, of the amount observed with [3H]myristate” value is reported as 27-28%. Further, the “label incorporated into C. neoformans lipids, of the amount observed with [3H]myristate” value in the experiment on C. neoformans lipids is given as 27-28%. Further, the log reduction at 300 µM in the experiment on S. cerevisiae (300 μM, 2 hr after addition, read-out: reductions in the number of viable S. cerevisiae) was < 0.699. In addition, the log reduction at 500 µM with S. cerevisiae (500 μM, read-out: reduction in the number of viable organisms (S. cerevisiae)) was 1 to 2.
